# Laboratory results published in patent US7618697B2, “Carboxylic acid esters of zosteric acid for prevention of biofouling” (Ciba Specialty Chemicals Corporation, priority 2005, dated 2009).
# Test system: Staphyloccus aureus
# Test: Microbial antiadhesion assay on coated PMMA test pins
# Assay type: cell-based
# Details: adhering microbes as percent of control pins (acrylate film former only = 100%), test concentration 0.50% in Glascol LS26 acrylate film former, 60 min in S. aureus suspension, immunological detection
# Method: Microbial Antiadhesion Assay
# According to the method of Nature Medicine Vol. 6, No. 8, 1053-1056, Zosterate esters are dissolved in a solution containing an acrylate polymeric film former (Glascol LS26, 4.6% active). Test pins made of PMMA are dipped into the solutions, incubated for 20 minutes and allowed to dry. The test pins are incubated in a suspension of Staphyloccus aureus for 60 min, then rinsed with PBS buffer. The microbial cells adhering to the pin are detected in an immunological assay using specific antibodies against the test strain which are then detected […]. The results are reported as a percent relative to the control pins (treated with acrylate film former only), a value of 100% represents the value observed on the control pins; a value of 42% represents a 0.42× the amount of microbes found on the pins treated with acrylate film former only.
structure (smiles),measurement,value
CCCCOC(=O)/C=C/c1ccc(OS(=O)(=O)O)cc1 [1-Butyl zosterate],Results on PMMA Based on Control,70%
CCC(C)OC(=O)/C=C/c1ccc(OS(=O)(=O)O)cc1 (stereo not drawn) [2-Butyl zosterate],Results on PMMA Based on Control,42%
"COC(=O)/C=C/c1ccc(OS(=O)(=O)O)cc1 [Methyl zosterate, Methyl Zosterate]",Results on PMMA Based on Control,28%
